Data published in PubChem BioAssay (NCI).
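Values below derive from 48-hour exposures of cells grown in 96-well plates, with endpoints linearly interpolated between the two concentrations bracketing the appropriate inhibition level. GI50 is the concentration that inhibits growth by half. TGI: total growth inhibition.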

How the values were obtained:
Test in all cases: growth of human tumour cells (NCI), 48 h
EKVX NSCLC = system: EKVX NSCLC
MALME-3M melanoma = system: MALME-3M melanoma
MDA-MB-435 = system: MDA-MB-435
NCI-H23 lung = system: NCI-H23 lung
NCI-H522 lung = system: NCI-H522 lung
NCI/ADR-RES ovarian = system: NCI/ADR-RES ovarian
OVCAR-8 ovarian = system: OVCAR-8 ovarian
SK-MEL-2 melanoma = system: SK-MEL-2 melanoma
U251 CNS = system: U251 CNS
UACC-257 melanoma = system: UACC-257 melanoma

SMILES	TGI (EKVX NSCLC) [µM]	TGI (MALME-3M melanoma) [µM]	TGI (MDA-MB-435) [µM]	TGI (NCI-H23 lung) [µM]	TGI (NCI-H522 lung) [µM]	TGI (NCI/ADR-RES ovarian) [µM]	TGI (OVCAR-8 ovarian) [µM]	TGI (SK-MEL-2 melanoma) [µM]	TGI (U251 CNS) [µM]	TGI (UACC-257 melanoma) [µM]	GI50 (EKVX NSCLC) [µM]	GI50 (MALME-3M melanoma) [µM]	GI50 (MDA-MB-435) [µM]	GI50 (NCI-H23 lung) [µM]	GI50 (NCI-H522 lung) [µM]	GI50 (NCI/ADR-RES ovarian) [µM]	GI50 (OVCAR-8 ovarian) [µM]	GI50 (SK-MEL-2 melanoma) [µM]	GI50 (U251 CNS) [µM]	GI50 (UACC-257 melanoma) [µM]
Clc1nc(NCCc2ccccc2)c2ncn(-c3ccccc3)c2n1	68.3	52.4	35.1	77.3	56.4	57.9	90.6	19.9	48.6	34.6	–	–	–	–	–	–	–	–	–	–
CCN(CC)C(=S)N=Nc1c(O)[nH]c2ccccc12	11.5	10.4	18.8	14.6	14.4	0.759	13	23.8	13	12.3	–	–	–	–	–	–	–	–	–	–
O=C1NC(=O)C(COCc2ccccc2)C2=C1SCCC2 (stereo unspecified)	> 100	> 100	> 100	> 100	> 100	> 100	> 100	> 100	> 100	> 100	–	–	–	–	–	–	–	–	–	–
O=c1oc2c(ccc3ccccc32)cc1C1=CSC2=NCCN12	> 100	> 100	> 100	> 100	> 100	> 100	> 100	> 100	> 100	> 100	–	–	–	–	–	–	–	–	–	–
O=C(O)CC1OCC=C2CN3CCC45C6=CC(=O)C(=O)C([N+](=O)[O-])=C6NC4C1C2CC35 (stereo unspecified)	> 100	> 100	31.3	> 100	> 100	> 100	> 100	> 100	> 100	> 100	–	–	–	–	–	–	–	–	–	–
O=C(/C=C/c1ccccc1)CSc1nc2ccc(I)cc2c(=O)n1Cc1ccccc1	> 37.2	51.3	> 100	> 100	> 89.5	> 100	> 100	99	> 100	> 100	–	–	–	–	–	–	–	–	–	–
O=S(=O)(O)c1ccc2c(N=Nc3ccc(F)cc3)c(O)c(S(=O)(=O)O)cc2c1	> 100	> 100	> 100	> 100	> 100	> 100	> 100	> 100	> 100	> 100	–	–	–	–	–	–	–	–	–	–
COc1cc2c(cc1OC)C(C)N(C)c1c-2c(OC(C)=O)cc2cc(OC)c(OC)cc12 (stereo unspecified)	61.9	14.8	35.6	36.7	19.2	33.2	33.2	30.2	> 68.5	24.2	–	–	–	–	–	–	–	–	–	–
CC(C)(C)OC(=O)N/N=C(/N)Cc1ccccc1	> 100	> 100	> 100	> 100	> 100	> 100	> 100	> 100	> 100	> 100	–	–	–	–	–	–	–	–	–	–
C[C@]12CCc3sc(Nc4ccc(O)cc4)nc3C1=CC[C@@H]1[C@@H]2CC[C@]2(C)C(=O)CC[C@@H]12	> 100	4.03	5.32	> 100	2.96	> 100	> 100	> 100	21.9	4.62	10.4	1.81	2.08	3.96	1.42	3.27	3.22	6.98	3.06	1.86
COC(=O)[C@@]12C(=O)C(C)C(=O)[C@]1(C)C(C)=C[C@H]1[C@]3(C=O)CC[C@H](OC(C)=O)C(C)(C)[C@H]3CC[C@@]12C (stereo partly specified)	> 100	> 100	> 100	> 100	> 100	> 100	> 100	> 100	> 100	> 100	–	–	–	–	–	–	–	–	–	–
O=c1[nH]c(-c2ccccc2)nc2c1sc1nc3ccccc3n12	> 100	> 100	> 100	> 100	> 100	> 100	> 100	> 100	> 100	> 100	–	–	–	–	–	–	–	–	–	–
O=C(CCCN1CCC2(CC1)CC(=O)N(N1CCCCCC1)C2=O)c1ccc(F)cc1	> 100	> 100	> 100	> 100	> 100	37.3	34.7	> 100	> 100	> 100	–	–	–	–	–	–	–	–	–	–
CC(C)(C)OC(=O)N(CCNS(=O)(=O)c1cccc2cnccc12)CCC(=O)ON1C(=O)CCC1=O	> 100	> 100	> 100	> 100	> 100	> 100	> 100	> 100	> 100	> 100	–	–	–	–	–	–	–	–	–	–
CCOP(=O)(OCC)C1=C(c2ccccc2)OC(N)=C(C#N)C1c1ccc(Cl)cc1 (stereo unspecified)	> 100	> 100	> 100	> 100	> 100	> 100	> 100	> 100	> 100	> 100	–	–	–	–	–	–	–	–	–	–
O=C(O)CC1(CC(=O)O)Nc2ccccc2SC1=O	> 100	> 100	> 100	> 100	> 100	> 100	> 100	> 100	> 100	> 100	–	–	–	–	–	–	–	–	–	–
O=C1/C(=C/c2ccccc2)CCC/C1=C\c1ccc(O)c(CN2CCCCC2)c1	18.1	40.2	7.5	15.1	7.22	8.44	9.54	29.2	11	18.5	–	–	–	–	–	–	–	–	–	–
c1ccc(C2OCC(OC3CCCCO3)CO2)cc1 (stereo unspecified)	> 100	> 100	> 100	> 100	> 100	> 100	> 100	> 100	> 100	> 100	–	–	–	–	–	–	–	–	–	–

SMILES	TGI (EKVX NSCLC) [µM]	TGI (MALME-3M melanoma) [µM]	TGI (MDA-MB-435) [µM]	TGI (NCI-H23 lung) [µM]	TGI (NCI-H522 lung) [µM]	TGI (NCI/ADR-RES ovarian) [µM]	TGI (OVCAR-8 ovarian) [µM]	TGI (SK-MEL-2 melanoma) [µM]	TGI (U251 CNS) [µM]	TGI (UACC-257 melanoma) [µM]	GI50 (EKVX NSCLC) [µM]	GI50 (MALME-3M melanoma) [µM]	GI50 (MDA-MB-435) [µM]	GI50 (NCI-H23 lung) [µM]	GI50 (NCI-H522 lung) [µM]	GI50 (NCI/ADR-RES ovarian) [µM]	GI50 (OVCAR-8 ovarian) [µM]	GI50 (SK-MEL-2 melanoma) [µM]	GI50 (U251 CNS) [µM]	GI50 (UACC-257 melanoma) [µM]
C/C(=N\NC(=S)NC(C)(C)C)c1ccccn1	> 100	> 79.5	> 100	> 100	> 23.1	> 39.7	> 36.6	> 100	> 85.9	> 100	–	–	–	–	–	–	–	–	–	–
COc1cccc2c1C(=O)c1ccc3cc(CCl)cc(O)c3c1C2=O	1.57	0.515	0.46	1.27	1.15	1.39	0.612	1.1	1.67	0.698	–	–	–	–	–	–	–	–	–	–
O=C1/C(=C/c2c(Cl)[nH]c3ccccc23)c2ccccc2N1c1ccccc1	27.2	18.6	4.12	19.3	10.7	6.55	20.4	9.57	22.9	23.8	–	–	–	–	–	–	–	–	–	–
Cn1cnc(N2CCCC2)c(C#N)c1=O	> 100	> 100	> 100	> 100	> 100	> 100	> 100	> 100	> 100	> 100	–	–	–	–	–	–	–	–	–	–
O=C1C(=C(I)I)c2ccccc2-c2ccccc21	9.45	4.08	5.58	16.3	2.61	12.2	7.72	19.7	17.6	5.04	–	–	–	–	–	–	–	–	–	–
CC1(C)OC(=O)C2(O1)C(=O)C1CCCCC12 (stereo unspecified)	> 100	> 100	> 100	> 100	> 100	> 100	> 100	> 100	> 100	> 100	–	–	–	–	–	–	–	–	–	–
CC(=O)N(CN1C(=O)CCC1C(=O)O)c1cccc(O)c1 (stereo unspecified)	> 100	> 100	> 100	> 100	> 100	> 100	> 100	> 100	> 100	> 100	–	–	–	–	–	–	–	–	–	–
Cn1c(=O)c2c(ncn2CCCCOc2ccc3c(c2)[n+]([O-])nc(N)[n+]3[O-])n(C)c1=O	> 100	> 100	> 100	> 100	> 100	> 100	> 100	> 100	91.8	> 100	–	–	–	–	–	–	–	–	–	–
CCOc1cc2c(cc1OC(C)=O)C(=O)CC[C@H]1C3CC[C@H](OC(C)=O)[C@@]3(C)CC[C@H]21 (stereo partly specified)	> 100	> 100	> 100	> 100	> 100	> 100	> 100	> 100	> 100	> 100	–	–	–	–	–	–	–	–	–	–
COc1ccc(C(=O)/C=C/c2cccnc2)cc1OC	28.7	28.5	30.1	22.9	3.5	36.5	18.6	27.3	16.7	29	–	–	–	–	–	–	–	–	–	–
Nc1nc(N)c2[nH]cnc2n1 (tested in a mixture with another compound)	60.1	> 100	77.5	77.5	54.2	> 100	> 100	77.5	> 100	55.2	–	–	–	–	–	–	–	–	–	–
COC1=CC(=O)c2c(O)c3c(c(O)c2C1=O)C=C(C)OC3O (stereo unspecified)	20.2	0.877	2.5	2.25	3.95	3.76	2.82	5.19	7.72	0.754	–	–	–	–	–	–	–	–	–	–
COC(=O)C1=C(C)NC(C)=C(C(=O)OC)C1c1cccc(NO)c1	70.9	29.9	30.9	33.8	20.8	42.3	30.2	30.8	29.8	27.5	–	–	–	–	–	–	–	–	–	–
COC(C)(C)CCc1[nH]c2ccccc2c1CC(=O)NCCc1cncn1C	> 100	> 100	> 100	> 100	> 100	> 100	> 100	> 100	> 100	> 100	–	–	–	–	–	–	–	–	–	–
Cc1cc2nc(-c3c(F)cccc3F)n(Cc3c(F)cccc3F)c2cc1C	22.7	44	32.8	39.9	27.1	44.9	29.5	29.6	24.1	30	–	–	–	–	–	–	–	–	–	–
N#Cc1[nH]c(=O)n(-c2cccc3ccccc23)c1N	> 10	> 10	> 10	> 10	> 10	> 10	> 10	> 10	> 10	> 10	–	–	–	–	–	–	–	–	–	–
CCOc1cc2c(cc1O)/C(=N/NS(=O)(=O)c1ccc(C)cc1)C[C@@H]1[C@@H]2CC[C@]2(C)[C@@H](O)CC[C@@H]12	> 100	> 100	> 100	> 100	> 100	> 100	> 100	> 100	> 100	> 100	–	–	0.917	–	–	–	–	–	–	–
